# According to article PMC6201930 (PLoS ONE, 2018):
# Several values for one entry are separate records, joined by “and”; a condition that tells them apart may be missing. Equal entries are not always repeated. Where two headings read alike, the source gives them in different places.
# Columns and labels:
# [1] = system: p53 R213* UGA premature termination codon in HDQ-P1 mammary carcinoma cells; test: HDQ-p53UGA213 readthrough assay (full-length p53, MSD immunoassay); format: cell-based, human; settings: for HDQ-p53UGA213 (Maxfold): maximum readthrough activity above background
# Description: We utilized HDQ-P1 mammary carcinoma cells, which are homozygous for R213*, a UGA premature termination codon in the gene for the tumor suppressor protein p53 [30]. […] Western blot hybridization and Meso Scale Discovery (MSD) immunoassay detection of p53 were done as previously described. […] Cells (45K per well) were grown in 96-well plates and treated with compounds for 24 hours. […] Cells were lysed with 60 μl per well of lysis buffer (20 mM Tris-HCL, pH 7.5, 1 mM EGTA, 1 mM EDTA,150 mM Nacl, 0.5% Triton X100) for one hour at room temperature and 30 μl of lysate per well were transferred to the coated plate and incubated overnight at 4 °C. […] Plates were then washed three times with PBS-T and 30 μl of 0.25 μ/ml goat anti-rabbit IgG-Sulfo-tag antibody (MSD) in TBS-C was added and incubated for 1 hour at room temperature. Plates were then washed three times with PBS-T and 150 μl read buffer (MSD) was added. Plates were read immediately in a SECTOR S 600 (MSD).
# [2] = system: tGFP-CFTR542X-HA-HIS construct (codon 542 UGA) in 293H cells; test: tGFP-542X readthrough assay (HA-HIS MSD immunoassay); format: cell-based, human
# [3] = system: fLuc mRNA harboring a UGA nonsense mutation at codon 190 (fLuc-190-NS); format: biochemical, rabbit
# From the text: ThefLuc-190-NS assay is an in vitro rabbit reticulocyte lysate translation of an fLuc mRNA harboring a UGA nonsense mutation at codon 190 (fLuc-190-NS). It is believed that positively charged aminoglycosides are poorly taken up by cells, and we used this cell-free readthrough assay to eliminate the potential variable of cell uptake when measuring readthrough potency. […] Readthrough protein was detected using a HA-HIS MSD immunoassay described previously.
# This cell-free translation assay used synthetic LUC mRNAs harboring an EMCV IRES and LUC codon 190-UGA premature stop codon prepared using the MegaScript in vitro transcription kit (Ambion). Translation reactions were done with the Rabbit Reticulocyte Lysate System (Promega) with 100 ng RNA and increasing concentrations of aminoglycosides. The amount of luminescence produced was determined after approximately 4 hours using a Viewlux CCD imager (Perkin-Elmer). Fold suppression over background was calculated as (aminoglycoside light units/PBS light units).
# [4] = Cytotoxicity in stimulated PBMCs (CellTitre-Glo ATP); settings: human, Stimulated PBMC CC50, AVERAGE (S1 File)
# From the text: (§1) When considering compounds for potential readthrough therapy it is important to monitor cellular and animal safety. In order to determine the most promising compounds to further evaluate in in vivo safety, we measured cytotoxicity in two different cell types. We used activated human peripheral blood mononuclear cells (PBMCs) (Table 2 and Fig 2D and 2E). PBMCs are a primary cell that when activated with phytohaemagglutinin (PHA) expand quickly and are commonly used as an in vitro surrogate for rapidly growing cells in the human body to evaluate cytotoxicity. Prior to advancing compounds into human studies, safety evaluation in rodents is performed. As an in vitro surrogate for rodent toxicity, we used primary mouse myoblasts.
# (§2) Frozen human Peripheral Blood Mononuclear Cells (PBMCs) were obtained from […] (Alameda, CA, Cat# PB003F) from a single donor. […] Plates were incubated at 37°C with 5% CO2 for 4 hours prior to compound treatment. Compounds were serially diluted and added to the plates. Plates were incubated at 37°C, 5% CO2 incubator, for 72 hours prior to determinations of ATP levels. Cell viability was determined using a chemiluminescent assay to monitor adenosine triphosphate (ATP) levels in live cells (CellTitre-Glo; CTG; Promega, Cat#G7571). Methods were performed per the manufacturer’s instructions.
# [5] = system: activated human peripheral blood mononuclear cells (PBMCs); test: as above; settings: read-out: Stimulated PBMC CC50
# From the text: as §1, §2
# [6] = Cytotoxicity in myoblasts; settings: mouse, primary mouse myoblasts, Myoblast CC50, AVERAGE (S1 File)
# From the text: as §1
# primary mouse myoblasts = test: Cytotoxicity in myoblasts; settings: read-out: Myoblast CC50
# From the text: as §1
# [7] = Neuromast toxicity assay (DASPEI staining); settings: zebrafish, zebrafish embryos 5 dpf, neuromasts (hair cells), other: embryos exposed to the drug in 24-well plates
# mouse cochlear explants = system: mouse cochlear explants; parameters: method as in PMID 24251786; settings: obtained previously; cited from earlier work
# [8] = system: zebrafish neuromasts (hair cells); test: Neuromast toxicity assay (DASPEI staining)
# [9] = concentration required to double the level of full-length p53 protein, average ± SD, at least three experiments, highest concentration 300 μM
# [10] = individual experiments (S1 File)
# [11] = individual experiments (S1 File), max fold
# [12] = 293H cells, 24 hours, average ± SD
# [13] = AVERAGE (S1 File), unit not given for EC5X
# [14] = individual experiments (S1 File), unit not printed for EC5X (EC2X of the sheet in uM)
# [15] = maximum readthrough above background, average ± SD
# [16] = individual determinations (S1 File)
Structure (SMILES),HDQ-p53UGA213 EC2X ([1]; AVERAGE (S1 File)) [µM],HDQ-p53UGA213 max ([1]; AVERAGE (S1 File)),"HDQ-p53UGA213 EC2X [1, 9] [µM]","HDQ-p53UGA213 EC2X [1, 10]","HDQ-p53UGA213 max [1, 11]",HDQ-p53UGA213 (Maxfold) ([1]; average ± SD) [fold],"tGFP-542X EC2X [2, 12] [µM]",tGFP-542X EC2X ([2]; AVERAGE (S1 File)) [µM],tGFP-542X Maxfold ([2]; AVERAGE (S1 File)),"tGFP-542X EC5X [2, 13]","tGFP-542X EC2X [2, 10]","tGFP-542X Maxfold [2, 10]","tGFP-542X EC5X [2, 14]","tGFP-542X Maxfold [2, 15] [fold]",fLuc-190-NS EC2X ([3]; AVERAGE (S1 File)) [µM],fLuc-190-NS MaxFold ([3]; AVERAGE (S1 File)),"fLuc-190-NS EC5X [3, 13]","fLuc-190-NS EC2X ([3]; cell-free, average ± SD) [µM]","fLuc-190-NS EC2X [3, 10]","fLuc-190-NS MaxFold [3, 10]",also measured
"CN[C@@H]1[C@@H](O)[C@@H](O[C@@H]2[C@@H](O)[C@H](O[C@H]3O[C@H]([C@@H](C)N)CC[C@H]3N)[C@@H](N)C[C@H]2N)OC[C@]1(C)O [Gentamicin C2, gentamicin C2]",141.9,5.8,142 ± 86,34.99 µM and 16.61 µM and 97.73 µM and 112.3 µM and 133.88 µM and 91.16 µM and 121.67 µM and 256.3 µM and 179.64 µM and 255.57 µM and 260.59 µM,4.1 and 15.8 and 4 and 3.2 and 5.2 and 3.9 and 2.4 and 15.7 and 3.5 and 3,6 ± 5,266 ± 44,265.9,8.9,653.9,225 µM and 260 µM and 312.48 µM,11 and 9 and 7.29,566 and 647 and 748.53,9 ± 2,1.1,97.2,1.9,1.086 ± 0.763,1.97 µM and 0.62 µM and 0.67 µM,84.91 and 97.65 and 109.15,"HDQ-p53UGA213 EC2X ([1]; concentration required to double the level of full-length p53 protein, average ± SD, at least three experiments, highest concentration 300 μM, listed as C2): triple digit; fLuc-190-NS MaxFold ([3]; cell-free, average ± SD): 97 ± 12 fold; fLuc-190-NS EC5X [3, 14]: 2.76 and 1.44 and 1.41; CC50 at 72 h [4]: 2180 µM; CC50 [5, 16]: 3800 µM and 566 µM; CC50 [6]: 3780 µM; CC50 (primary mouse myoblasts; [16]): 6100 µM and 4310 µM and 911 µM; CC50 at 24 h ([7]; Neuromast CC50, AVERAGE (S1 File)): 2.8 µM; CC50 at 24 h ([7]; Neuromast CC50, individual determinations (S1 File)): 2.8 µM"
"C[C@@H](O)C1O[C@H](O[C@@H]2C(N)C[C@@H](NC(=O)[C@@H](O)CCN)[C@@H](O)C2O[C@@H]2O[C@H](CN)[C@H](O)C2O)[C@@H](N)C(O)[C@@H]1O (stereo partly shown) [NB84, reference compound]",16.6,29.7,17 ± 5,20.31 µM and <15.63 µM and 17.59 µM and 8.82 µM and 19.52 µM,15.6 and 52.2 and 25.2 and 30.9 and 25.4 and 29,30 ± 12,38 ± 12,38.2,110.3,109.2,25 µM and 46 µM and 44 µM,176 and 74 and 81,67 and 132 and 128,110 ± 57,0.0453,180.8,0.1430,0.045 ± 0.011,0.0389 µM and 0.0393 µM and 0.0578 µM,172.62 and 163.42 and 206.48,"fLuc-190-NS EC5X [3, 14]: 0.1461 and 0.1276 and 0.1554; CC50 ([5]; AVERAGE (S1 File)): 440 µM; CC50 [5, 16]: 536 µM and 1160 µM and 179 µM and 156 µM and 173 µM; CC50 (primary mouse myoblasts; AVERAGE (S1 File)): 279 µM; CC50 (primary mouse myoblasts; [16]): 411 µM and 147 µM; CC50 (mouse cochlear explants): 20 µM; CC50 ([8]; read-out: Neuromast (CC50), zebrafish embryos 5 dpf, 24 hours exposure, maximum of two measurements): 8 ± 0.1 µM; CC50 ([8]; read-out: Neuromast CC50, AVERAGE (S1 File)): 7.9 µM; CC50 ([8]; read-out: Neuromast CC50, individual determinations (S1 File)): 7.8 µM"
